This is an account of results in patent US7888359B2, “Cyclohexyl or piperidinyl carboxamide antibiotic derivatives” (Actelion Pharmaceutical Ltd., priority 2006, dated 2011).

Format in all cases: cell-based
The test system of one test is S. aureus A798. The test can be described thus: MIC by microdilution (NCCLS) against S. aureus A798. Conditions: pH 7.2-7.3; for MIC: Staphylococcus aureus, A798, cation-adjusted Mueller-Hinton Broth. As for the experimental part: (§1) These assays have been performed following the description given in “Methods for dilution Antimicrobial Susceptibility Tests for Bacteria that Grow Aerobically, 4th ed.; Approved standard: NCCLS Document M7-A4; National Committee for Clinical Laboratory Standards Villanova, Pa., USA, 1997”. Minimal inhibitory concentrations (MICs; mg/L) were determined in cation-adjusted Mueller-Hinton Broth (BBL) by a microdilution method following NCCLS guidelines (National Committee for Clinical Laboratory Standards. Methods for Dilution Antimicrobial Susceptibility). The pH of the test medium was 7.2-7.3.

The subject of the next test is S. Pneumoniae 49619. The test can be described thus: MIC by microdilution (NCCLS) against S. Pneumoniae 49619. Conditions: cation-adjusted Mueller-Hinton Broth, pH 7.2-7.3; for MIC: Streptococcus pneumoniae. How it is done: as §1
Another test relates to M. catarrhalis A894. The test can be described thus: MIC by microdilution (NCCLS) against M. catarrhalis A894. Conditions: pH 7.2-7.3; for MIC: Moraxella catarrhalis, A894, cation-adjusted Mueller-Hinton Broth. How it is done:
as §1

[1] abbreviates: cation-adjusted Mueller-Hinton Broth.

Structures are written as SMILES. ≈ marks a conversion by molar mass, not a printed value.

On to `COc1ccc2nccc(OC[C@H]3CC[C@H](C(=O)Nc4ccc5c(c4)OCCO5)CC3)c2c1` [Example 1, trans-4-(6-methoxy-quinolin-4-yloxymethyl)-cyclohexanecarboxylic acid (2,3-dihydro-benzo[1,4]dioxin-6-yl)-amide], for which the figures for the MIC with S. aureus A798, in the test on S. Pneumoniae 49619 and against M. catarrhalis A894 were 0.06 µg/mL (≈ 0.134 µM), 0.06 µg/mL (≈ 0.134 µM) and 0.5 µg/mL (≈ 1.11 µM), respectively.
Regarding `COc1ccc2nccc(C(O)CN3CCC(C(=O)Nc4ccc5c(c4)NC(=O)CS5)CC3)c2c1` (racemic) [Example 12, (2RS)-1-[2-hydroxy-2-(6-methoxy-quinolin-4-yl)-ethyl]-piperidine-4-carboxylic acid (3-oxo-3,4-dihydro-2H-benzo[1,4]thiazin-6-yl)-amide], the results for the MIC in the test on S. aureus A798, in the test on S. Pneumoniae 49619 and in the test with M. catarrhalis A894 were 1 µg/mL (≈ 2.03 µM), 2 µg/mL (≈ 4.06 µM) and 0.25 µg/mL (≈ 0.508 µM), respectively.
For the molecule `COc1cnc2cccc(CCC3(O)CCC(C(=O)N/C=C/c4cc(F)ccc4F)CC3)c2c1` (stereo not drawn) [Example 26, trans-4-hydroxy-4-[2-(3-methoxy-quinolin-5-yl)-ethyl]-cyclohexanecarboxylic acid [2-(2,5-difluoro-phenyl)-vinyl]-amide], the “MIC S. aureus A798” value with S. aureus A798 (setting [1]) was less than 0.03 µg/mL. Further, the “MIC S. Pneumoniae 49619” value against S. Pneumoniae 49619 came out at 0.125 µg/mL (≈ 0.268 µM). The “MIC M. catarrhalis A894” value against M. catarrhalis A894 (setting [1]) is less than 0.03 µg/mL.
With `COc1ccc2nccc(CCC3(O)CCC(C(=O)N(C)c4ccc5c(c4)OCCO5)CC3)c2n1` (stereo not drawn) [Example 39, 4-hydroxy-4-[2-(6-methoxy-[1,5]naphthyridin-4-yl)-ethyl]-cyclohexanecarboxylic acid (2,3-dihydro-benzo[1,4]dioxin-6-yl)-methyl-amide], the results for the MIC with S. aureus A798, against S. Pneumoniae 49619 and against M. catarrhalis A894 were 1 µg/mL (≈ 2.09 µM), 8 µg/mL (≈ 16.8 µM) and 8 µg/mL (≈ 16.8 µM), respectively.
